In brackets after ≈: the same amount, converted by molar mass.
What was measured:
[1] = system: Mycobacterium tuberculosis; assay: In vitro antimicrobacterial activity to inhibit 90% of Mycobacterium tuberculosis H37Rv (Rifampin and Isoniazid susceptible ATCC 27294 strain), relative to that of controls; assay type: functional
[2] = system: Mycobacterium tuberculosis; assay: In vitro anti-mycobacterial activity against Mycobacterium tuberculosis H37Rv (Rifampin and Isoniazid susceptible ATCC 27294 strain); assay type: functional; set-up: concentration or dose not given beside the values
[3] = system: Mycobacterium avium; assay: In vitro anti-mycobacterial activity against Mycobacterium avium at 12.5 ug/mL; assay type: functional
[4] = system: Vero; assay: Compound was tested for its cytotoxicity on Vero cells; assay type: functional, cell-based; conditions: Chlorocebus sabaeus
[5] = Safety index from cytotoxicity to that of minimal inhibitory concentration; assay type: toxicity; conditions: read-out: S.I

COc1ccc(/C=N/NC(=O)c2ccncc2)cc1F
MIC [1]: < 0.2 µg/mL
Inhibition [2]: 99%

O=C(N/N=C/c1ccc(C(F)(F)F)cc1)c1ccncc1
MIC [1]: < 0.2 µg/mL
inhibition at 12.5 µg/mL [3]: 82%
Inhibition [2]: 100%

O=C(N/N=C/c1ccccc1F)c1ccncc1
MIC [1]: 0.05 µg/mL (≈ 0.206 µM)
IC50 [4]: 8.4 µg/mL (≈ 34.5 µM)
selectivity ratio [5]: 168
Inhibition [2]: 100%

C/C(=N\NC(=O)c1ccncc1)c1ccc(Cl)c(Cl)c1
MIC [1]: < 0.2 µg/mL
Inhibition [2]: 100%

O=C(N/N=C(\c1ccccc1)C(F)(F)F)c1ccncc1
MIC [1]: 6.25 µg/mL (≈ 21.3 µM)
Inhibition [2]: 100%

C/C(=N\NC(=O)c1ccncc1)C(F)(F)F
MIC [1]: 0.05 µg/mL (≈ 0.216 µM)
Inhibition [2]: 99%

O=C(N/N=C/C(F)(F)F)c1ccncc1
MIC [1]: 0.05 µg/mL (≈ 0.23 µM)
Inhibition [2]: 100%

C/C(=N\NC(=O)c1ccncc1)c1ccccc1F
MIC [1]: 0.2 µg/mL (≈ 0.777 µM)
IC50 [4]: > 125 µg/mL
selectivity ratio [5]: > 625
Inhibition [2]: 100%

C/C=N/NC(=O)c1ccncc1
MIC [1]: 0.025 µg/mL (≈ 0.153 µM)
Inhibition [2]: 99%

C/C(=N\NC(=O)c1ccncc1)c1ccc(F)cc1
MIC [1]: < 0.2 µg/mL
IC50 [4]: > 10 µg/mL
selectivity ratio [5]: > 50
Inhibition [2]: 99%

O=C(N/N=C/c1cccc(F)c1)c1ccncc1
MIC [1]: < 0.2 µg/mL
IC50 [4]: > 6.25 µg/mL
inhibition at 12.5 µg/mL [3]: 82%
selectivity ratio [5]: > 31.2
Inhibition [2]: 99%

O=C(N/N=C/c1cccc(C(F)(F)F)c1)c1ccncc1
MIC [1]: 0.1 µg/mL (≈ 0.341 µM)
IC50 [4]: > 10 µg/mL
selectivity ratio [5]: > 100
Inhibition [2]: 99%

C/C(=N\NC(=O)c1ccncc1)c1cccc(F)c1
MIC [1]: < 0.05 µg/mL
Inhibition [2]: 100%

NNC(=O)c1ccncc1 [ISONIAZID]
MIC [1]: 0.05 µg/mL (≈ 0.365 µM)
IC50 [4]: > 1000 µg/mL

CO[C@H]1/C=C/O[C@@]2(C)Oc3c(C)c(O)c4c(O)c(c(/C=N/N5CCN(C)CC5)c(O)c4c3C2=O)NC(=O)/C(C)=C\C=C\[C@H](C)[C@H](O)[C@@H](C)[C@@H](O)[C@@H](C)[C@H](OC(C)=O)[C@@H]1C [RIFAMPIN]
MIC [1]: 0.06 µg/mL (≈ 0.0729 µM)
IC50 [4]: 147 µg/mL (≈ 179 µM)

— ChEMBL document CHEMBL1133318, “Isoniazid-related copper(II) and nickel(II) complexes with antimycobacterial in vitro activity. Part 9” (Bioorg Med Chem Lett, 2000)
